# Source: ChEMBL document CHEMBL3124777, “Synthesis and biological evaluation of thiazoline derivatives as new antimicrobial and anticancer agents” (Eur J Med Chem, 2014)
# Experiments:
# Aspergillus parasiticus = assay: Antimicrobial activity against Aspergillus parasiticus NRRL 465 after 48 to 72 hrs by microbroth dilution method; type: functional
# Listeria monocytogenes = assay: Antimicrobial activity against Listeria monocytogenes ATCC 7644 after 18 to 24 hrs by microbroth dilution method; type: functional
# C6 [1] = assay: Cytotoxicity against rat C6 cells assessed as cell viability at 50 ug/ml after 24 hrs by MTT assay relative to control; type: functional; settings: C6, 24 h, read-out: Activity
# Fusarium culmorum = assay: Antimicrobial activity against wild type Fusarium culmorum after 48 to 72 hrs by microbroth dilution method; type: functional
# C6 [2] = assay: Cytotoxicity against rat C6 cells assessed as cell viability at 25 ug/ml after 24 hrs by MTT assay relative to control; type: functional; settings: C6, 24 h, read-out: Activity
# Staphylococcus aureus = assay: Antimicrobial activity against Staphylococcus aureus NRRL B-767 after 18 to 24 hrs by microbroth dilution method; type: functional
# C6 [3] = assay: Cytotoxicity against rat C6 cells assessed as cell viability at 6 ug/ml after 24 hrs by MTT assay relative to control; type: functional; settings: C6, 24 h, read-out: Activity
# NIH3T3 = assay: Cytotoxicity against mouse NIH/3T3 cells after 24 hrs by MTT assay; type: cell-based; settings: NIH3T3, 24 h
# Candida albicans = assay: Antimicrobial activity against Candida albicans ATCC 22019 after 18 to 24 hrs by microbroth dilution method; type: functional
# Pseudomonas aeruginosa = assay: Antimicrobial activity against Pseudomonas aeruginosa […] after 18 to 24 hrs by microbroth dilution method; type: functional
# Aspergillus ochraceus = assay: Antimicrobial activity against Aspergillus ochraceus NRRL 3174 after 48 to 72 hrs by microbroth dilution method; type: functional
# Fusarium solani = assay: Antimicrobial activity against Fusarium solani NRRL 13414 after 48 to 72 hrs by microbroth dilution method; type: functional
# Bacillus subtilis = assay: Antimicrobial activity against Bacillus subtilis NRS-744 after 18 to 24 hrs by microbroth dilution method; type: functional
# C6 [4] = assay: Cytotoxicity against rat C6 cells assessed as cell viability at 12 ug/ml after 24 hrs by MTT assay relative to control; type: functional; settings: C6, 24 h, read-out: Activity
# Escherichia coli = assay: Antimicrobial activity against Escherichia coli ATCC 25922 after 18 to 24 hrs by microbroth dilution method; type: functional
# C6 [5] = assay: Cytotoxicity against rat C6 cells assessed as cell viability at 100 ug/ml after 24 hrs by MTT assay relative to control; type: functional; settings: C6, 24 h, read-out: Activity
# C6 [6] = assay: Cytotoxicity against rat C6 cells assessed as cell viability at 200 ug/ml after 24 hrs by MTT assay relative to control; type: functional; settings: C6, 24 h, read-out: Activity
# Penicillium chrysogenum = assay: Antimicrobial activity against Penicillium chrysogenum NRRL 1951 after 48 to 72 hrs by microbroth dilution method; type: functional
# Fusarium verticillioides = assay: Antimicrobial activity against Fusarium moniliforme NRRL 1866 after 48 to 72 hrs by microbroth dilution method; type: functional
# Trichoderma harzianum = assay: Antimicrobial activity against Trichoderma harzianum NRRL 20565 after 48 to 72 hrs by microbroth dilution method; type: functional
# Micrococcus luteus = assay: Antimicrobial activity against Micrococcus luteus NRLL B-4375 after 18 to 24 hrs by microbroth dilution method; type: functional
# C6 [7] = assay: Cytotoxicity against rat C6 cells after 24 hrs by MTT assay; type: functional, cell-based; settings: C6, 24 h
SMILES,MIC (Aspergillus parasiticus) [mg/L],MIC (Listeria monocytogenes) [mg/L],MIC (Fusarium culmorum) [mg/L],MIC (Staphylococcus aureus) [mg/L],MIC (Candida albicans) [mg/L],MIC (Pseudomonas aeruginosa) [mg/L],MIC (Aspergillus ochraceus) [mg/L],MIC (Fusarium solani) [mg/L],MIC (Bacillus subtilis) [mg/L],MIC (Escherichia coli) [mg/L],MIC (Penicillium chrysogenum) [mg/L],MIC (Fusarium verticillioides) [mg/L],MIC (Trichoderma harzianum) [mg/L],viability at 50 µg/mL (C6 [1]) [%],viability at 25 µg/mL (C6 [2]) [%],viability at 6 µg/mL (C6 [3]) [%],IC50 (NIH3T3) [mg/L],viability at 12 µg/mL (C6 [4]) [%],viability at 100 µg/mL (C6 [5]) [%],viability at 200 µg/mL (C6 [6]) [%],also measured
O=C(CSc1ncccn1)N/N=c1/scc(-c2ccc(Br)cc2)n1-c1ccccc1,250,250,250,500,250,250,250,250,250,250,250,250,250,69,72.3,76.4,273,72.1,67.6,63.2,MIC (Micrococcus luteus): 250 mg/L; IC50 (C6 [7]): > 200 mg/L
Cc1ccc(-c2cs/c(=N/NC(=O)CSc3ncccn3)n2-c2ccccc2)cc1,250,250,250,250,250,250,250,250,500,250,250,250,250,64.4,82.7,93.2,> 500,83,45.9,43.7,MIC (Micrococcus luteus): 250 mg/L; IC50 (C6 [7]): 85 mg/L
Cn1nnnc1SCC(=O)N/N=c1/scc(-c2ccccc2)n1-c1ccccc1,250,250,250,250,250,250,250,250,250,250,250,250,125,56.2,64.2,85.2,173,80.7,38.8,26.8,MIC (Micrococcus luteus): 250 mg/L; IC50 (C6 [7]): 67.7 mg/L
Cc1nnc(SCC(=O)N/N=c2/scc(-c3ccccc3)n2-c2ccccc2)s1,250,250,250,500,250,250,250,250,500,250,250,250,125,63.9,65.9,72.4,197,72.5,61.8,59.2,MIC (Micrococcus luteus): 250 mg/L; IC50 (C6 [7]): > 200 mg/L
O=C(CSc1ncccn1)N/N=c1/scc(-c2ccc(F)cc2)n1-c1ccccc1,250,250,250,500,250,250,250,250,500,250,250,250,250,55.5,63.9,84,> 500,77.4,53.4,32.2,MIC (Micrococcus luteus): 250 mg/L; IC50 (C6 [7]): 110 mg/L
O=C(CSc1ncccn1)N/N=c1/scc(-c2ccc(Cl)cc2)n1-c1ccccc1,250,250,250,500,250,250,250,250,500,250,250,250,250,61.8,91.1,95.9,397,91.6,45.5,39.7,MIC (Micrococcus luteus): 250 mg/L; IC50 (C6 [7]): 83.3 mg/L
Cn1cnnc1SCC(=O)N/N=c1/scc(-c2ccc(C#N)cc2)n1-c1ccccc1,250,250,250,250,250,250,250,250,250,250,250,250,125,58.8,58.8,70.2,153,62.6,55.2,52.6,MIC (Micrococcus luteus): 250 mg/L; IC50 (C6 [7]): > 200 mg/L
Cc1ccc(-c2cs/c(=N/NC(=O)CSc3nnnn3C)n2-c2ccccc2)cc1,250,250,125,250,250,250,250,250,500,250,250,250,125,44.3,60.7,88,243,68.8,39.7,39.7,MIC (Micrococcus luteus): 250 mg/L; IC50 (C6 [7]): 36.3 mg/L

# Further lines, with some results ahead:
MIC (Aspergillus parasiticus) [mg/L],MIC (Listeria monocytogenes) [mg/L],MIC (Fusarium culmorum) [mg/L],MIC (Staphylococcus aureus) [mg/L],MIC (Candida albicans) [mg/L],MIC (Pseudomonas aeruginosa) [mg/L],MIC (Aspergillus ochraceus) [mg/L],MIC (Fusarium solani) [mg/L],MIC (Bacillus subtilis) [mg/L],MIC (Escherichia coli) [mg/L],MIC (Penicillium chrysogenum) [mg/L],MIC (Fusarium verticillioides) [mg/L],MIC (Trichoderma harzianum) [mg/L],SMILES,viability at 50 µg/mL (C6 [1]) [%],viability at 25 µg/mL (C6 [2]) [%],viability at 6 µg/mL (C6 [3]) [%],IC50 (NIH3T3) [mg/L],viability at 12 µg/mL (C6 [4]) [%],viability at 100 µg/mL (C6 [5]) [%],viability at 200 µg/mL (C6 [6]) [%],also measured
250,250,250,250,250,250,250,250,250,250,250,250,250,COc1ccc(-c2cs/c(=N/NC(=O)CSc3ncccn3)n2-c2ccccc2)cc1,66.5,74,89.6,450,78.4,51.5,37.6,MIC (Micrococcus luteus): 250 mg/L; IC50 (C6 [7]): 102 mg/L
250,250,250,250,250,250,250,250,250,250,250,250,125,Cn1cnnc1SCC(=O)N/N=c1/scc(-c2ccccc2)n1-c1ccccc1,62.4,77.3,90,217,79.6,38.6,35.5,MIC (Micrococcus luteus): 250 mg/L; IC50 (C6 [7]): 68.3 mg/L
250,250,250,250,250,125,250,250,250,125,250,250,125,O=C(CSc1nnnn1-c1ccccc1)N/N=c1/scc(-c2ccc(Cl)cc2)n1-c1ccccc1,60,62.3,77.4,313,69.3,54.3,52.4,MIC (Micrococcus luteus): 125 mg/L; IC50 (C6 [7]): > 200 mg/L
250,250,250,250,125,250,250,250,250,125,250,250,125,Cc1ccc(-c2cs/c(=N/NC(=O)CSc3nncn3C)n2-c2ccccc2)cc1,53.8,70.7,74.6,130,72,39.6,27.8,MIC (Micrococcus luteus): 125 mg/L; IC50 (C6 [7]): 56 mg/L
250,250,250,500,250,250,250,250,250,250,250,250,250,N#Cc1ccc(-c2cs/c(=N/NC(=O)CSc3nnnn3-c3ccccc3)n2-c2ccccc2)cc1,61.1,64.2,78.8,453,74.1,59.8,54,MIC (Micrococcus luteus): 250 mg/L; IC50 (C6 [7]): > 200 mg/L
